# In patent publication US9403833B2, “Carboxamide derivatives” (Novartis AG, priority 2014, dated 2016):
# pIC50: −log10 of the molar value.
# Target: Smurf-1 (Homo sapiens (Human), UniProt Q9HCE7)
# Assay: HECT E3 ligase autoubiquitinylation TR-FRET assay (Smurf-1)
# Type: biochemical
# Details: 8-point dose-response, 3 nM to 10 uM, 45 min incubation
# Description: To determine the HECT E3 ligase selectivity of the compounds, a panel of biochemical HECT E3 ligase autoubiquitinylation assays was employed (Smurf-1, Smurf-2, WWP1, WWP2, ITCH, Nedd4, Nedd4L and E6AP). The conjugation of ubiquitin to a protein substrate is a multistep process. In an initial ATP-requiring step, a thioester bond is formed between the carboxyl terminus of ubiquitin and an internal cystein residue of the ubiquitin-activating enzyme (E1). Activated ubiquitin is then transferred to a specific cystein residue of an ubiquitin-conjugating enzyme (E2). E2s donate ubiquitin to a HECT E3 ligase (E3) from which it is transferred to the substrate protein. HECT E3 ligases can auto-ubiquitinylate. This event is detected in the TR-FRET (Time-Resolved Fluorescence Resonance Energy Transfer) assay used in this panel. The reaction mix contains E1, E2, tagged-E3, biotin-conjugated ubiquitin, the compound and ATP in a suitable buffer and is incubated for 45 minutes to allow auto-ubiquitinylation of the E3 ligase. To measure the extent of ubiquitinylated E3 ligase by TR-FRET, the donor fluorophore Europium cryptate (Eu3+ cryptate), conjugated to streptavidin which subsequently binds to biotinylated ubiquitin, and the modified allophycocyanin XL665 (HTRF® primary acceptor fluorophore) coupled to a tag-specific antibody (HA, His or GST), which recognizes the respective E3 ligase fusion proteins, are added after the reaction is complete. When these two fluorophores are brought together by a biomolecular interaction (in this case ubiquitinylation of the E3 ligase), a portion of the energy captured by the Cryptate during excitation is released through fluorescence emission at 620 nm, while the remaining energy is transferred to XL665. This energy is then released by XL665 as specific fluorescence at 665 nm. Light at 665 nm is emitted only through FRET with Europium.
# Test and reference compounds are prepared at 180× [final] in 90% DMSO, and diluted 1:3 in 90% DMSO.
# For the biochemical assay panel, 50 nl of the test compounds, reference compounds and buffer/DMSO control are transferred to the respective wells of a 384-well white GREINER “SMALL VOLUME” PS plate. The assay panel is run at room temperature on a Biomek FX liquid handling workstation. To the assay plates containing 50 nl compound or control solutions in 90% DMSO, 4.5 ul of E3 ligase solution were added per well, followed by 4.5 ul of the pre-incubated E1/E2/Ub mix or the pre-diluted ubiquitin (LOW control). Plates are shaken vigorously after each addition. In this assay the compound concentrations range from 3 nM to 10 uM in an 8-point dose-response curve.
# After 45 min of incubation the ubiquitinylation reactions were stopped by adding 4.5 ul 2 mM NEM, immediately followed by 4.5 ul of a detection solution including the XL665-labeled antibody and the streptavidin-coupled europium to give a total volume of 18 ul. After an incubation time of 45 min in the dark, the plates are transferred into the Pherastar fluorescence reader to measure the TR-FRET signal.
# Smurf-1, sequence (Q9HCE7 whole entry): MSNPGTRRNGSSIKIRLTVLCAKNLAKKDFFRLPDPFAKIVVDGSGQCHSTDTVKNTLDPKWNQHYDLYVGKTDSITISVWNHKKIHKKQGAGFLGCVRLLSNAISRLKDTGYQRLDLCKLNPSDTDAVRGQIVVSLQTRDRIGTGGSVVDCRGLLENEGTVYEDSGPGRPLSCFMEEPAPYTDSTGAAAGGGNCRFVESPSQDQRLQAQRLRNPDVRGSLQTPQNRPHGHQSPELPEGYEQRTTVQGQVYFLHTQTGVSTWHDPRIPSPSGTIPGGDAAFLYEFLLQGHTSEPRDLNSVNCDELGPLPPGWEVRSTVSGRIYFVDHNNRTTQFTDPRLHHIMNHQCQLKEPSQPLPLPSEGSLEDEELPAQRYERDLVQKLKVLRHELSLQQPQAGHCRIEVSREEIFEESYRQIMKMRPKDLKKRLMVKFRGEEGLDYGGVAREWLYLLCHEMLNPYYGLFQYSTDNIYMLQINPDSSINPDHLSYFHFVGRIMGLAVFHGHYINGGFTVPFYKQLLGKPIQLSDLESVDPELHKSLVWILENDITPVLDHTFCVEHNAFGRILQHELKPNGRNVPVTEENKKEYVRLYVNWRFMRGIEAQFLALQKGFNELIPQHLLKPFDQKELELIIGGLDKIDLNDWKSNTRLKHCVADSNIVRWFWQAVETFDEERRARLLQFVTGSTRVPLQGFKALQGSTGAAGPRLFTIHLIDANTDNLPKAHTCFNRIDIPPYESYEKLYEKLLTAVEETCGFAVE
row,SMILES,pIC50
1,"Cc1c(C(=O)Nc2c(C)n(C)n(C3CCCCC3)c2=O)nnn1-c1ccc(OC(F)(F)F)cc1Cl [Example 5, 1-(2-Chloro-4-(trifluoromethoxy)phenyl)-N-(2-cyclohexyl-1,5-dimethyl-3-oxo-2,3-dihydro-1H-pyrazol-4-yl)-5-methyl-1H-1,2,3-triazole-4-carboxamide]",6.26
2,"Cc1c(C(=O)Nc2c(C)n(C)n(C3CCCCC3)c2=O)nnn1-c1ccc(Cl)cc1Cl [Example 2, N-(2-Cyclohexyl-1,5-dimethyl-3-oxo-2,3-dihydro-1H-pyrazol-4-yl)-1-(2,4-dichlorophenyl)-5-methyl-1H-1,2,3-triazole-4-carboxamide]",6.24
3,"Cc1c(C(=O)Nc2c(C)n(C)n(-c3ccccc3F)c2=O)nnn1-c1ccc(OC(F)(F)F)cc1Cl [Example 9, 1-(2-Chloro-4-(trifluoromethoxy)phenyl)-N-(2-(2-fluorophenyl)-1,5-dimethyl-3-oxo-2,3-dihydro-1H-pyrazol-4-yl)-5-methyl-1H-1,2,3-triazole-4-carboxamide]",5.36
4,"Cc1c(C(=O)Nc2c(C)n(C)n(C3CCCCC3)c2=O)nnn1-c1ccc(Cl)cc1C1CC1 [Example 14, 1-(4-Chloro-2-cyclopropylphenyl)-N-(2-cyclohexyl-1,5-dimethyl-3-oxo-2,3-dihydro-1H-pyrazol-4-yl)-5-methyl-1H-1,2,3-triazole-4-carboxamide]",6.64
5,"COc1ccc(-n2nnc(C(=O)Nc3c(C)n(C)n(C4CCCCC4)c3=O)c2C)c(Cl)c1 [Example 1, 1-(2-Chloro-4-methoxyphenyl)-N-(2-cyclohexyl-1,5-dimethyl-3-oxo-2,3-dihydro-1H-pyrazol-4-yl)-5-methyl-1H-1,2,3-triazole-4-carboxamide]",6.36
6,"Cc1c(C(=O)Nc2c(C)n(C)n(C3CCCCC3)c2=O)nnn1-c1ccc(C2CC2)cc1Cl [Example 10, 1-(2-Chloro-4-cyclopropylphenyl)-N-(2-cyclohexyl-1,5-dimethyl-3-oxo-2,3-dihydro-1H-pyrazol-4-yl)-5-methyl-1H-1,2,3-triazole-4-carboxamide]",7.04
7,"Cc1c(C(=O)Nc2c(C)n(C)n(C3CCCCC3)c2=O)nnn1-c1ccc(Cl)cc1 [Example 6, 1-(4-Chlorophenyl)-N-(2-cyclohexyl-1,5-dimethyl-3-oxo-2,3-dihydro-1H-pyrazol-4-yl)-5-methyl-1H-1,2,3-triazole-4-carboxamide]",5.09
8,"Cc1c(C(=O)Nc2c(C)n(C)n(-c3ccccc3F)c2=O)nnn1-c1ccc(Cl)cc1C1CC1 [Example 13, 1-(4-Chloro-2-cyclopropylphenyl)-N-(2-(2-fluorophenyl)-1,5-dimethyl-3-oxo-2,3-dihydro-1H-pyrazol-4-yl)-5-methyl-1H-1,2,3-triazole-4-carboxamide]",5.48
9,"[2H]C([2H])([2H])n1c(C)c(NC(=O)c2nnn(-c3ccc(C4CC4)cc3Cl)c2C)c(=O)n1C1CCCCC1 [Example 12, 1-(2-Chloro-4-cyclopropylphenyl)-N-(2-cyclohexyl-1-methyl-d3,5-methyl-3-oxo-2,3-dihydro-1H-pyrazol-4-yl)-5-methyl-1H-1,2,3-triazole-4-carboxamide]",7.01
10,"Cc1c(C(=O)Nc2c(C)n(C)n(-c3ccccc3F)c2=O)nnn1-c1ccc(Cl)cc1 [Example 8, 1-(4-Chlorophenyl)-N-(2-(2-fluorophenyl)-1,5-dimethyl-3-oxo-2,3-dihydro-1H-pyrazol-4-yl)-5-methyl-1H-1,2,3-triazole-4-carboxamide]",5.55
11,"Cc1c(NC(=O)c2nnn3c2CCCc2cc(OC(F)(F)F)ccc2-3)c(=O)n(C2CCCCC2)n1C [Example 16, N-(2-Cyclohexyl-1,5-dimethyl-3-oxo-2,3-dihydro-1H-pyrazol-4-yl)-8-(trifluoromethoxy)-5,6-dihydro-4H-benzo[f][1,2,3]triazolo[1,5-a]azepine-3-carboxamide]",7.26
12,"Cc1c(C(=O)Nc2c(C)n(C)n(-c3ccccc3F)c2=O)nnn1-c1ccc(Cl)cc1Cl [Example 7, 1-(2,4-Dichlorophenyl)-N-(2-(2-fluorophenyl)-1,5-dimethyl-3-oxo-2,3-dihydro-1H-pyrazol-4-yl)-5-methyl-1H-1,2,3-triazole-4-carboxamide]",5.24
13,"COc1ccc(-n2nnc(C(=O)Nc3c(C)n(C)n(C4CCCCC4)c3=O)c2C)cc1 [Example 17, N-(2-Cyclohexyl-1,5-dimethyl-3-oxo-2,3-dihydro-1H-pyrazol-4-yl)-1-(4-methoxyphenyl)-5-methyl-1H-1,2,3-triazole-4-carboxamide]",5.51
14,"COc1ccc(-n2nnc(C(=O)Nc3c(C)n(C)n(C4CCCCC4)c3=O)c2C)c(C(F)(F)F)c1 [Example 3, N-(2-Cyclohexyl-1,5-dimethyl-3-oxo-2,3-dihydro-1H-pyrazol-4-yl)-1-(4-methoxy-2-(trifluoromethyl)phenyl)-5-methyl-1H-1,2,3-triazole-4-carboxamide]",6.05
15,"Cc1c(C(=O)Nc2c(C)n(C)n(-c3ccccc3F)c2=O)nnn1-c1ccc(C2CC2)cc1Cl [Example 11, 1-(2-Chloro-4-cyclopropylphenyl)-N-(2-(2-fluorophenyl)-1,5-dimethyl-3-oxo-2,3-dihydro-1H-pyrazol-4-yl)-5-methyl-1H-1,2,3-triazole-4-carboxamide]",6.00
16,"Cc1c(C(=O)Nc2c(C)n(C)n(C3CCCCC3)c2=O)nnn1-c1ccc(F)cc1C1CC1 [Example 15, N-(2-Cyclohexyl-1,5-dimethyl-3-oxo-2,3-dihydro-1H-pyrazol-4-yl)-1-(2-cyclopropyl-4-fluorophenyl)-5-methyl-1H-1,2,3-triazole-4-carboxamide]",5.35
